We go through 20 molecules from ChEMBL document CHEMBL5303711, “ECBD screening data for assay EOS300108” (2023).

The nature of the data set: Cytotoxicity activity against human HepG2 cells assessed by CellTiter-Glo luminescent cell viability assay. It is filed as toxicity, cell-based. Also noted: assay stage confirmatory assay, source tissue liver. Conditions: HepG2 cells, read-out: IC50 relative.

Where a name gives a salt, the structure may show the parent alone. Activity calls are given as the source filed them. How the calls were made is not given here.

As to `CCCCCCOC(=O)NC(=N)c1ccc(NCc2nc3cc(C(=O)N(CCC(=O)OCC)c4ccccn4)ccc3n2C)cc1` [DABIGATRAN ETEXILATE MESYLATE], the CC50 is 10.2 µM (active).

With `CC(C)(C)c1nc(-c2cccc(NS(=O)(=O)c3c(F)cccc3F)c2F)c(-c2ccnc(N)n2)s1` [DABRAFENIB], the CC50 is 3.1 µM (active).

Take `COc1cc2ncnc(Nc3ccc(F)c(Cl)c3)c2cc1NC(=O)/C=C/CN1CCCCC1` [DACOMITINIB ANHYDROUS]: the CC50 is 6.5 µM (active).

With `Cn1c(=O)n(-c2ccc(C(C)(C)C#N)cc2)c2c3cc(-c4cnc5ccccc5c4)ccc3ncc21` [DACTOLISIB TOSYLATE], the CC50 was 0.1 µM (active).

`Cc1cc(C)c(Nc2ccnc(Nc3ccc(C#N)cc3)n2)c(C)c1` [DAPIVIRINE]: the CC50 was 6.5 µM (active).

Take `CN(C)[C@@H](CCOc1cccc2ccccc12)c1ccccc1` [DAPOXETINE HYDROCHLORIDE]: the CC50 was 6.3 µM (active).

As for `CCN(CC)CCN(Cc1ccc(-c2ccc(C(F)(F)F)cc2)cc1)C(=O)Cn1c(SCc2ccc(F)cc2)nc(=O)c2c1CCC2` [DARAPLADIB], the CC50 was 1.5 µM (active).

Take `NC(=O)C(c1ccccc1)(c1ccccc1)[C@@H]1CCN(CCc2ccc3c(c2)CCO3)C1` [DARIFENACIN HYDROBROMIDE]: the CC50 was 11.1 µM (active).

In the case of `COc1cccc2c1C(=O)c1c(O)c3c(c(O)c1C2=O)C[C@@](O)(C(C)=O)C[C@@H]3O[C@H]1C[C@H](N)[C@H](O)[C@H](C)O1` [DAUNORUBICIN HYDROCHLORIDE], the CC50 is 0.3 µM (active).

For `CNC(=O)c1ccc(Nc2ncc(C(F)(F)F)c(NCc3nccnc3N(C)S(C)(=O)=O)n2)cc1` [DEFACTINIB], the CC50 was 1.4 µM (inactive).

For `CC(C)C[C@H](NC(=O)[C@@H](NC(=O)c1cccc(-c2ccccc2)n1)[C@@H](C)O)B(O)O` [DELANZOMIB], the CC50 was < 0.1 µM (active).

For `CN1CCC(Nc2nc(Nc3ccc(Oc4ccccc4)cc3)c3c(=O)[nH]cc(Br)c3n2)CC1` [DENFIVONTINIB], the CC50 was 0.4 µM (active).

As for `Cc1cc(N)c2ccccc2[n+]1CCCCCCCCCC[n+]1c(C)cc(N)c2ccccc21` [DEQUALINIUM CHLORIDE], the CC50 was 14.4 µM (inactive).

As for `CNCCCN1c2ccccc2CCc2ccccc21` [DESIPRAMINE HYDROCHLORIDE], the CC50 was 11.4 µM (active).

Take `C[C@H]1O[C@@H](O[C@H]2[C@@H](O)C[C@H](O[C@H]3[C@@H](O)C[C@H](O[C@H]4CC[C@@]5(C)[C@H](CC[C@@H]6[C@@H]5CC[C@]5(C)[C@@H](C7=CC(=O)OC7)CC[C@]65O)C4)O[C@@H]3C)O[C@@H]2C)C[C@H](O)[C@@H]1O` [DIGITOXIN]: the CC50 was 0.1 µM (active).

In the case of `C[C@H]1O[C@@H](O[C@H]2[C@@H](O)C[C@H](O[C@H]3[C@@H](O)C[C@H](O[C@H]4CC[C@@]5(C)[C@H](CC[C@@H]6[C@@H]5C[C@@H](O)[C@]5(C)[C@@H](C7=CC(=O)OC7)CC[C@]65O)C4)O[C@@H]3C)O[C@@H]2C)C[C@H](O)[C@@H]1O` [DIGOXIN], the CC50 is 0.2 µM (active).

In the case of `CN1C[C@H](C(=O)N[C@]2(C)O[C@@]3(O)[C@@H]4CCCN4C(=O)[C@H](Cc4ccccc4)N3C2=O)C[C@@H]2c3cccc4[nH]cc(c34)C[C@H]21` [DIHYDROERGOTAMINE MESYLATE], the CC50 was 12.9 µM (active).

With `Cc1cccc2c3c(ccc12)C1=C(C(=O)C3=O)[C@@H](C)CO1` [DIHYDROTANSHINONE I], the CC50 is 1.8 µM (active).

Turning to `Cc1ccc(C)c(-c2cc(C(F)(F)F)nn2-c2ccc(S(N)(=O)=O)cc2)c1` [DIMETHYL CELECOXIB], the CC50 is 18.1 µM (inactive).

`C[C@@H]1CC[C@@]2(OC1)O[C@H]1C[C@H]3[C@@H]4CC=C5C[C@@H](O[C@@H]6O[C@H](CO)[C@@H](O[C@@H]7O[C@@H](C)[C@H](O)[C@@H](O)[C@H]7O)[C@H](O)[C@H]6O[C@@H]6O[C@@H](C)[C@H](O)[C@@H](O)[C@H]6O)CC[C@]5(C)[C@H]4CC[C@]3(C)[C@H]1[C@@H]2C` [DIOSCIN]: the CC50 is 0.7 µM (active).
